Experimental findings from ChEMBL document CHEMBL5724696, “Autophagy assay results for EUbOPEN Chemogenomics Library” (2024) are described below.

This assay has as its system TERT-RPE1. In words: Here: values are normalized to the negative (DMSO; defined as 0% autophagy induction) and positive (250nM Torin1; mTOR inhibitor; defined as maximal inducer of autophagy = 100%) control compounds and represented as % of autophagy induction. […] The impact of autophagy induction on cells is complex and depends on the affected target. As such, the magnitude of a phenotype may not be equally mirrored in the %-value of autophagy induction and vice versa. The dynamics of the induction may indicate the mode of activation: e.g. activation via phosphorylation or a signaling cascade may occur fast, while activation via transcription factors may take considerably longer. […] Of note, treatment concentrations may be sub-optimal for specific compounds, leading to false negative annotations. The format is functional, Homo sapiens. The settings on record: Culturing Media DMEM/F12 (1:1), 1 % Penicillin/Streptomycin, 10% Fetal bovin serum Add-On: No, Screening Media Control DMEM/F12 (1:1), Screening Media Samples DMEM/F12 (1:1).

Setting [1] is: Compound Concentration 1 uM, Timepoint 12 hours.
The mark [2] stands for this setting: Compound Concentration 1 uM, Timepoint 24 hours.
Setting [3] is: Compound Concentration 1 uM, Timepoint 36 hours.
[4] abbreviates: Compound Concentration 1 uM, Timepoint 60 hours.

With `Cc1oc2ccccc2c1Cc1cc(I)c(OCC(=O)O)c(I)c1`, the autophagy induction is given as -1.169% (Compound Concentration 3 uM, Timepoint 12 hours); 9.702% (Compound Concentration 3 uM, Timepoint 24 hours); 19.9109% (Compound Concentration 3 uM, Timepoint 36 hours); -4.505% (Compound Concentration 3 uM, Timepoint 60 hours).
Consider `CC(=O)Oc1ccc2c(c1)[C@@]1(C)CCC[C@](C)(C(=O)OC(=O)[C@@]3(C)CCC[C@]4(C)c5cc(OC(C)=O)ccc5CC[C@@H]34)[C@@H]1CC2` [ACETYL PODOCARPIC ACID ANHYDRIDE], for which the autophagy induction is recorded as -1.145% under setting [1], -5.055% under setting [2], -3.143% under setting [3] and -11.9263% under setting [4].
As for `CCCCc1oc2ccccc2c1C(=O)c1cc(I)c(OCCN(CC)CC)c(I)c1.Cl` [AMIODARONE HYDROCHLORIDE], the autophagy induction under setting [1] is -399.679%, the autophagy induction under setting [2] is -0.6341%, the autophagy induction under setting [3] turned out to be 14.6432% and the autophagy induction under setting [4] is given as -20.4662%.
For the molecule `COc1cc2c(cc1CC=C(C)C)C(=O)C[C@@H](c1ccc(O)cc1)O2` [BAVACHININ A], the autophagy induction reads like this: under setting [1], -6.984%; under setting [2], -10.3298%; under setting [3], -14.6991%; under setting [4], 1.68%.
As for `CC(C)(O)c1cn(-c2ccc(-c3cccc(S(C)(=O)=O)c3)cc2)c(C(C)(C)c2ccccc2Cl)n1` [BMS-779788], the autophagy induction under setting [1] is given as -11.1228%, the autophagy induction under setting [2] is given as -2.718%, the autophagy induction under setting [3] came out at 17.5149% and the autophagy induction under setting [4] is listed as -24.6575%.
Regarding `C=C1/C(=C\C=C2/CCC[C@]3(C)[C@@H]([C@H](C)CCCC(C)(C)O)CC[C@@H]23)C[C@@H](O)C[C@@H]1O` [CALCITRIOL], the autophagy induction is 36.7455% under setting [1], -4.807% under setting [2], 11.5028% under setting [3] and -14.2726% under setting [4].
Take `O=C(O)c1ccnc(N2CC(O)(c3ccc(OCc4c(-c5c(Cl)cccc5Cl)noc4C4CC4)cc3Cl)C2)c1` [CILOFEXOR]: the autophagy induction was determined as 6.577% under setting [1], 4.142% under setting [2], 10.1768% under setting [3] and 9.429% under setting [4].
With `CC(C)(C[C@H]1CN(S(=O)(=O)c2cccc(C(F)(F)F)c2)c2cc(-c3cc(F)cc(OC(F)F)c3)ccc2O1)C(=O)O` [CINTIRORGON], the autophagy induction is given as -13.5912% under setting [1], -2.372% under setting [2], 17.7364% under setting [3] and -18.8569% under setting [4].
`C[C@H]1[C@H]2CC[C@H]3[C@@H]4CC=C5C[C@@H](N(C)C)CC[C@]5(C)[C@H]4CC[C@]23CN1C` [CONESSINE]: the autophagy induction under setting [1] was -9.079%, the autophagy induction under setting [2] is -15.7832%, the autophagy induction under setting [3] is on record as -16.9143% and the autophagy induction under setting [4] came out at 14.1244%.
The matching figures for `C=C1/C(=C\C=C2/CCC[C@]3(C)[C@@H]([C@H](C)/C=C/[C@H](C)C(C)C)CC[C@@H]23)C[C@@H](O)C[C@@H]1O` [DOXERCALCIFEROL]: -0.6335%, -0.7736%, 0.8774% and -4.588%.
With `CSc1ccc(C(=O)/C=C/c2cc(C)c(OC(C)(C)C(=O)O)c(C)c2)cc1` [ELAFIBRANOR], the autophagy induction is -15.4717% under setting [1], -8.668% under setting [2], 8.143% under setting [3] and -14.713% under setting [4].
Consider `CC(C)c1c(CN(C)C(C)Cc2ccccc2)n(C)n(-c2ccccc2)c1=O` (stereo unspecified) [FAMPROFAZONE], for which the autophagy induction runs as follows: under setting [1], -9.526%; under setting [2], -5.45%; under setting [3], -2.084%; under setting [4], -36.1562%.
The matching figures for `COC(=O)/C=C/c1cccc(N(Cc2ccc(-c3ccc(N(C)C)cc3)cc2)C(=O)C2CCCCC2)c1` [FEXARAMINE]: -11.8732%, 0.4959%, 16.8927% and -24.9579%.
Turning to `CCc1ccc(N(CC(C)C)S(=O)(=O)c2ccc(OCC3CCOCC3)c(CO)c2)cc1` [GSK2981278], the autophagy induction under setting [1] is 1.382%, the autophagy induction under setting [2] was -2.385%, the autophagy induction under setting [3] is reported as -1.59% and the autophagy induction under setting [4] is given as 5.376%.
For `CCCCCCCN(CCc1ccc(SC(C)(C)C(=O)O)cc1)C(=O)Nc1ccc(F)cc1F` [GSK-9578], the autophagy induction reads like this: under setting [1], -3.328%; under setting [2], -4.346%; under setting [3], -1.192%; under setting [4], -5.756%.
On to `CC(C)(Sc1ccc(CCN(CCCCC2CCCCC2)C(=O)NC2CCCCC2)cc1)C(=O)O` [GW7647], for which the autophagy induction under setting [1] was -14.4765%, the autophagy induction under setting [2] is -1.331%, the autophagy induction under setting [3] turned out to be 15.0253% and the autophagy induction under setting [4] was -17.5748%.
With `Cc1cc(SCc2sc(-c3ccc(C(F)(F)F)cc3)nc2C)ccc1OCC(=O)O` [GW501516], the autophagy induction is recorded as 35.2172% under setting [1], -7.412% under setting [2], 9.218% under setting [3] and -19.4944% under setting [4].
Consider `Cc1nc(-c2ccc(C(F)(F)F)cc2)sc1C(=O)NCc1ccc(OC(C)(C)C(=O)O)cc1` [GW590735], for which the autophagy induction by setting is: under setting [1], -16.082%; under setting [2], -2.956%; under setting [3], 16.0196%; under setting [4], -2.481%.
Turning to `O=C(O)CCCc1cc2cc(Cl)ccc2n1S(=O)(=O)c1ccc2ncsc2c1` [LANIFIBRANOR], the autophagy induction was -95.7021% under setting [1], -0.9693% under setting [2], 14.6224% under setting [3] and -20.9711% under setting [4].
Consider `N[C@@H](Cc1cc(I)c(Oc2ccc(O)c(I)c2)c(I)c1)C(=O)O` [LIOTHYRONINE], for which the autophagy induction under setting [1] was 142.376%, the autophagy induction under setting [2] is -11.4171%, the autophagy induction under setting [3] is 8.172% and the autophagy induction under setting [4] is on record as -7.587%.
On to `CC[C@H](C)C(=O)O[C@H]1C[C@@H](C)C=C2C=C[C@H](C)[C@H](CC[C@@H]3C[C@@H](O)CC(=O)O3)[C@H]21` [LOVASTATIN], for which the autophagy induction was -7.01% under setting [1], 13.8584% under setting [2], 45.8036% under setting [3] and 48.5439% under setting [4].
As for `COc1ccc(OC(=O)N(CC(=O)O)Cc2ccc(OCCc3nc(-c4ccccc4)oc3C)cc2)cc1` [MURAGLITAZAR], the autophagy induction is recorded as 84.7945% under setting [1], -9.438% under setting [2], 5.064% under setting [3] and -9.533% under setting [4].
For `O=C(O)c1ccc2cc(-c3ccc(O)c(C45CC6CC(CC(C6)C4)C5)c3)ccc2c1` [O-DEMETHYLATED ADAPALENE], the autophagy induction is on record as -7.665% under setting [1], -12.7242% under setting [2], -13.449% under setting [3] and 12.49% under setting [4].
For `CC[C@H]1[C@@H](O)[C@@H]2[C@H](CC[C@]3(C)[C@@H]([C@H](C)CCC(=O)O)CC[C@@H]23)[C@@]2(C)CC[C@@H](O)C[C@@H]12` [OBETICHOLIC ACID] the same measures were -8.507%, -7.962%, -3.9436% and 2.71%.
